pEC50: −log10 of the molar value.

In general, pEC50 refers to the EC50 on a negative log10 scale, so that one unit is a factor of ten.

In one test the test system is HT-29 cells. The test can be described thus: HT-29 cell viability (necroptosis) assay. In kind it is cell-based. Particulars: Homo sapiens, TNF-α (40 ng/mL), Smac mimetic (100 nM), z-VAD (20 μM), 40 h, from survival rate curve. As to the method: Human colon cancer HT-29 cells were used in a necroptosis assay. For this assay, HT-29 cells were added to 96-well plates. The compounds at different concentrations (0.3, 1.0, 3.0, 10.0, 20.0 μM) were then preprocessed for two hours. TNF-α (40 ng/mL), Smac mimetic (100 nM) and z-VAD (20 μM) were added, and the mixture was incubated for 40 h. Quantitative analysis of cell viability was conducted. DMSO pretreatment group was used as a negative control. Concentration for 50% of maximal effect was calculated according to the curve of the survival rate measured at different concentrations. FIG. 1 depicts the EC50 curves of compound A16.
Compound `O=S1(=O)C=C(C2CC2)c2cc3nccc(Nc4ccc5cn[nH]c5c4)c3cc21` [Compound A91] showed a pEC50 of 6.80. In turn, `CCC1=Cc2cc3nccc(Nc4ccc5scnc5c4)c3cc2S1(=O)=O` [Compound A4] gave a pEC50 of 6.01. Same read-out and setting: the figure for `O=S1(=O)C=C(OC2CCNC2)c2cc3nccc(Nc4ccc5scnc5c4)c3cc21` (centres unmarked) [Compound A113] is 5.70; for `COc1c2c(cc3c(Nc4ccc5scnc5c4)ccnc13)S(=O)(=O)C=C2` [Compound A108] it is 6.20; for `Cc1ccc(O)cc1Nc1ccnc2cc3c(cc12)S(=O)(=O)C=C3` [Compound A107] it is 5.97. Still for that read-out and setting: the figure for `COC1=C(C)S(=O)(=O)c2cc3c(Nc4ccc5scnc5c4)ccnc3cc21` [Compound A19] is 6.70; for `NCCOC1=CS(=O)(=O)c2cc3c(Nc4ccc5scnc5c4)ccnc3cc21` [Compound A110] it is 5.68.

As for `CCC1=CS(=O)(=O)c2cc3c(Nc4ccc5scnc5c4)ccnc3cc21` [Compound A10], the pEC50 is 5.86. Same read-out and setting: the figure for `Cc1ccc(O)cc1Nc1ccnc2cc3c(cc12)S(=O)(=O)C(C)(C)C3=O` [Compound B13] is 6.28; for `Cc1ccc(O)cc1Nc1ccnc2cc3c(cc12)S(=O)(=O)C=C3C1CC1` [Compound A95] it is 6.52; for `O=S1(=O)C=C(OCCO)c2cc3nccc(Nc4ccc5scnc5c4)c3cc21` [Compound A16, 8-(benzo[d]thiazol-5-ylamino)-3-(2-hydroxyethoxy)thieno[2,3-g]quinoline 1,1-dioxide] it is 5.89.

Consider `O=S1(=O)C=C(c2cccnc2)c2cc3nccc(Nc4ccc5scnc5c4)c3cc21` [Compound A27], for which the pEC50 was 6.31. On the same count and under the same terms, the figure for `Cn1cc(C2=CS(=O)(=O)c3cc4c(Nc5ccc6scnc6c5)ccnc4cc32)cn1` [Compound A31] is 5.99; for `CC1=Cc2cc3nccc(Nc4ccc(O)c(C#N)c4)c3cc2S1(=O)=O` [Compound A58] it is 5.40; for `O=S1(=O)C=C(C2CC2)c2cc3nccc(Nc4cc(O)ccc4F)c3cc21` [Compound A89] it is 6.66. Consider `O=S1(=O)C=C(O[C@@H]2CCOC2)c2cc3nccc(Nc4ccc5scnc5c4)c3cc21` [Compound A116], for which the negative-log EC50 (pEC50) was 6.59. On the same count and under the same terms, the figure for `CC1(C)C(=O)c2cc3nccc(Nc4cc(O)ccc4F)c3cc2S1(=O)=O` [Compound B14] is 6.49. On the same count and under the same terms, the figure for `O=S1(=O)C=C(c2ccncc2)c2cc3nccc(Nc4ccc5scnc5c4)c3cc21` [Compound A28] is 6.00; for `CC(C)OC1=Cc2cc3nccc(Nc4ccc5scnc5c4)c3cc2S1(=O)=O` [Compound A15] it is 6.30. The same measure, in the same setting: the figure for `CC(C)C1=Cc2cc3nccc(Nc4ccc5scnc5c4)c3cc2S1(=O)=O` [Compound A5] is 6.12; for `CC1(C)C(O)c2cc3nccc(Nc4ccc5scnc5c4)c3cc2S1(=O)=O` (centres unmarked) [Compound B9] it is 6.21; for `O=S1(=O)C=C(NCCO)c2cc3nccc(Nc4ccc5scnc5c4)c3cc21` [Compound A18] it is 6.51.

The compound `Cc1[nH]nc(Nc2ccnc3cc4c(cc23)S(=O)(=O)C=C4C2CC2)c1C` [Compound A96] gave a negative-log EC50 (pEC50) of 6.23. As to `O=S1(=O)C=C(c2ccc(F)cc2)c2cc3nccc(Nc4ccc5scnc5c4)c3cc21` [Compound A26], the pEC50 was 6.24. The compound `O=S1(=O)C(C2CC2)=Cc2cc3nccc(Nc4ccc5scnc5c4)c3cc21` [Compound A6] gave a negative logarithm of the EC50 (pEC50) of 6.27.

Still in this test, the particulars now being: Homo sapiens, compound at 20 μM, TNF-α (40 ng/mL), Smac mimetic (100 nM), z-VAD (20 μM), 40 h, read-out: HT-29(20 μM) Survival.
Take `CC1=Cc2cc3nccc(Nc4ccc5[nH]nnc5c4)c3cc2S1(=O)=O` [Compound A39]: the viability at 20 µM was 63.5%. Still for that read-out and setting: the figure for `CC(=O)Nc1ccc(C)c(Nc2ccnc3cc4c(cc23)S(=O)(=O)C=C4C)c1` [Compound A77] is 12.9%; for `CC1(C)C(O)(C2CC2)c2cc3nccc(Nc4ccc5scnc5c4)c3cc2S1(=O)=O` (centres unmarked) [Compound B11] it is 26.2%; for `CC1(C)C(=O)c2cc3nccc(Nc4ccc(O)c(C#N)c4)c3cc2S1(=O)=O` [Compound B17] it is 22.8%. Same read-out and setting: the figure for `CC(=O)Nc1ccc(C)c(Nc2ccnc3cc4c(cc23)S(=O)(=O)C(C)=C4)c1` [Compound A48] is 7.8%; for `CCC1(C)C(C)c2cc3nccc(Nc4ccc5scnc5c4)c3cc2S1(=O)=O` (centres unmarked) [Compound B5] it is 39.2%.

For the compound `CC1=Cc2cc3nccc(Nc4ccnc(N)c4)c3cc2S1(=O)=O` [Compound A65, 8-((2-aminopyridin-4-yl)amino)-2-methylthieno[2,3-g]quinoline 1,1-dioxide], the viability at 20 µM was 19.5%. The same measure, in the same setting: the figure for `CC1=Cc2cc3nccc(Nc4n[nH]c(C)c4C)c3cc2S1(=O)=O` [Compound A38] is 37.6%; for `O=S1(=O)c2cc3c(Nc4ccc5scnc5c4)ccnc3cc2OCC12CC2` [Compound B25] it is 70.7%.

Regarding `CC1=CS(=O)(=O)c2cc3c(Nc4ccc(O)cc4F)ccnc3cc21` [Compound A81], the viability at 20 µM turned out to be 28.8%.

Take `O=S1(=O)CC(c2ccccc2)c2cc3nccc(Nc4ccc5scnc5c4)c3cc21` (centres unmarked) [Compound B23]: the viability at 20 µM was 12.7%. Regarding `N#Cc1cc(O)cc(Nc2ccnc3cc4c(cc23)S(=O)(=O)C=C4C2CC2)c1` [Compound A99], the viability at 20 µM was 72.7%. Still for that read-out and setting: the figure for `O=C1NCCc2ccc(Nc3ccnc4cc5c(cc34)S(=O)(=O)C=C5C3CC3)cc21` [Compound A93] is 11.1%; for `CC1=CS(=O)(=O)c2cc3c(Nc4cc(O)ccc4C)ccnc3cc21` [Compound A76] it is 33.8%.

Take `C#Cc1cc(O)cc(Nc2ccnc3cc4c(cc23)S(=O)(=O)C(C)=C4)c1` [Compound A62]: the viability at 20 µM stood at 22.3%. On the same count and under the same terms, the figure for `CC1=Cc2cc3nccc(Nc4cc(O)ccc4C)c3cc2S1(=O)=O` [Compound A46] is 13.1%. On the same count and under the same terms, the figure for `CC(=O)Nc1ccc(C)c(Nc2ccnc3cc4c(cc23)S(=O)(=O)C(C)=C4C)c1` [Compound A86] is 20.5%; for `CC1(O)c2cc3nccc(Nc4ccc5scnc5c4)c3cc2S(=O)(=O)C1(C)C` (centres unmarked) [Compound B10, 8-(benzo[d]thiazol-5-ylamino)-3-hydroxy-2,2,3-trimethyl-2,3-dihydrothieno[2,3-g]quinoline 1,1-dioxide] it is 36.4%. Still for that read-out and setting: the figure for `CC1=CS(=O)(=O)c2cc3c(Nc4cc(O)cc(C(F)(F)F)c4)ccnc3cc21` [Compound A82] is 11%; for `CC1=Cc2cc3nccc(Nc4cc(N)ccc4C)c3cc2S1(=O)=O` [Compound A49] it is 60.3%. As for `COc1ccc(C)c(Nc2ccnc3cc4c(cc23)S(=O)(=O)C(C)=C4)c1` [Compound A47], the viability at 20 µM is 17.5%. Still for that read-out and setting: the figure for `CC1=Cc2cc3nccc(Nc4cc(O)cc(C#N)c4)c3cc2S1(=O)=O` [Compound A61] is 29.2%; for `O=C1c2cc3nccc(Nc4ccc5scnc5c4)c3cc2S(=O)(=O)C12CC=CC2` [Compound B22] it is 23.5%; for `CC1=Cc2cc3nccc(Nc4ccc(O)c(C(F)(F)F)c4)c3cc2S1(=O)=O` [Compound A57] it is 15.3%. The same measure, in the same setting: the figure for `O=C1c2c(cc3c(Nc4ccc5scnc5c4)ccnc3c2Cl)S(=O)(=O)C12CC=CC2` [Compound B21] is 4.9%; for `N#Cc1cc(Nc2ccnc3cc4c(cc23)S(=O)(=O)C=C4C2CC2)ccc1O` [Compound A98] it is 14.8%. On the same count and under the same terms, the figure for `CC1=CS(=O)(=O)c2cc3c(Nc4ccc(O)cc4C)ccnc3cc21` [Compound A80] is 14.4%; for `CC1=C(C)S(=O)(=O)c2cc3c(Nc4cc(N)ccc4C)ccnc3cc21` [Compound A87] it is 15.5%; for `CC1=Cc2cc3nccc(Nc4ccc5c(c4)CN(C)CC5)c3cc2S1(=O)=O` [Compound A42] it is 23.1%.

For the compound `CC1=Cc2cc3nccc(Nc4ccc(O)c(Br)c4)c3cc2S1(=O)=O` [Compound A56], the viability at 20 µM was determined as 23.2%.

Regarding `CC1=CS(=O)(=O)c2cc3c(Nc4n[nH]c(C)c4C)ccnc3cc21` [Compound A75], the viability at 20 µM came out at 32.3%. For the compound `CC1=Cc2cc3nccc(Nc4cc(N)cc(F)n4)c3cc2S1(=O)=O` [Compound A71, 8-((4-amino-6-fluoropyridin-2-yl)amino)-2-methylthieno[2,3-g]quinoline 1,1-dioxide], the viability at 20 µM stood at 23.4%.

As for `CC1=Cc2cc3nccc(Nc4ccc5nc[nH]c5c4)c3cc2S1(=O)=O` [Compound A40], the viability at 20 µM is 5.8%. Still for that read-out and setting: the figure for `CC1=C(C)S(=O)(=O)c2cc3c(Nc4cc(O)ccc4C)ccnc3cc21` [Compound A88] is 41.3%; for `CC1=Cc2cc3nccc(Nc4cc(O)cc(Br)c4)c3cc2S1(=O)=O` [Compound A60] it is 13.9%.

As to `O=S1(=O)c2cc3c(Nc4ccc5scnc5c4)ccnc3cc2OCC12CCC2` [Compound B26], the viability at 20 µM was found to be 72.6%. Still for that read-out and setting: the figure for `CC1=Cc2cc3nccc(Nc4ccc5c(c4)CNCC5)c3cc2S1(=O)=O` [Compound A41] is 9.8%; for `C=CCC1(C)C(=O)c2cc3nccc(Nc4ccc5scnc5c4)c3cc2S1(=O)=O` (centres unmarked) [Compound B6] it is 42.5%. On the same count and under the same terms, the figure for `CC1=Cc2cc3nccc(Nc4cncc(N)c4)c3cc2S1(=O)=O` [Compound A64] is 20.2%; for `O=S1(=O)C=C(C2CC2)c2cc3nccc(Nc4n[nH]c5ccc(F)cc45)c3cc21` [Compound A90] it is 36%.

For the origin of these results see patent US12612413B2, “Heteroaryl compounds as inhibitors of programmed necrosis pathway, composition and method using the same” (ACCRO BIOSCIENCE INC., priority 2020, dated 2026).
